Measurements reported in patent US20230416330A1, “Optimized GIP Peptide Analogues” (Antag Therapeutics ApS, priority 2019, published 2023).
Starred links: 1 amine or outer side, 2 acyl side, 3 side chain; linkers in the order of their positions; H or OH if unused. Non-standard residues stand in square brackets, D forms with d. Residues, ends and D or L forms follow the SMILES beside them. Groups on a side chain read outwards from the residue. *: point of attachment. C18 diacid = O=C(O)CCCCCCCCCCCCCCCCC(=O)*; C16 diacid = O=C(O)CCCCCCCCCCCCCCC(=O)*; γGlu = O=C(O)[C@H](CCC(=O)[*:2])N[*:1]; Glutaryl = O=C(CCCC(=O)[*:2])[*:1]; Nle = CCCC[C@H](N)C(=O)O; AEEA = NCCOCCOCC(=O)O; Aib = CC(C)(N)C(=O)O

Experiments:
[1] = Solubility by visual inspection of peptide solutions; assay type: physicochemical
Description: (§1) Peptides were either dissolved in sodium phosphate buffer (50 mM, pH 7.4, filtered) or dissolved in ultrapure (MilliQ) water (adjusted to pH 7.4 with NaOH, filtered) (see Table 3). All peptide samples were prepared to a concentration of 1, 5, 7.5 or 15 mg/ml. All samples, with the exception of reference peptides GIP(3-30), AT158, and AT482 dissolved readily and produced clear and colorless solutions with gentle mixing. Peptide samples were subsequently filtered through 0.22 μm nylon filters (Q-Max® RR syringe filter, 13 mm, Frisenette, DK) to produce particle-free solutions. All samples were added to a 96-well plate reader for the ThT assay at t=0.
Clear visual appearance may be taken as an indicator of the immediate solubility of the peptide. […] Thus, A13Aib and/or N24E substitutions appear to increase solubility.

[2] = Physical stability: fibril formation in Thioflavin T (ThT) assay with agitation; assay type: physicochemical; settings: for Avr lag time / Avr lag time (h): 25° C., agitation
Description: Continuous measurement of the fluorescence emission at 486 nm can be used as a measure of fibrillation behavior of peptides and proteins. The time until onset of fibrillation or fibrillation lag time is estimated here by defining the lag time (Tlag) as the point in time where the signal relative to the pre-transition baseline has reached 10% of the post-transition baseline.
50 mM sodium phosphate buffer for dissolving some samples was prepared in ultrapure water (Milli-Q® Reference A+ System, Merck) with a resistivity of 18.2 MΩ·cm. The buffer was adjusted to pH 7.4 and filtered.
The ultrapure water (MilliQ) for dissolving some samples was adjusted to pH 7.4 with NaOH and filtered prior to sample preparation.
as §1
For each sample, […] ThT (1 mM) was added to 1.2 mL peptide solution. From this sample mixture, an amount of 200 uL/well was pipetted into four or five wells (n=4 or 5). Blank samples (buffer+ThT) were also included. One 3 mm silica bead was added to each well containing samples and the plate was subjected to orbital rotation at 300 rpm to agitate and stress the samples. The temperature was kept at 25° C. throughout the measurement.

Compound | Visual appearance ([1]; 1 mg/ml, CI, Phosphate (7.4)) | Visual appearance ([1]; 1 mg/ml, Na, MilliQ) | Visual appearance ([1]; 1 mg/ml, TFA, Phosphate (7.4)) | Visual appearance ([1]; 5 mg/ml, Na, MilliQ) | Visual appearance ([1]; 5 mg/ml, TFA, MilliQ (8)) | Visual appearance ([1]; 5 mg/ml, TFA, Phosphate) | Visual appearance ([1]; 7.5 mg/ml, Na, MilliQ (8)) | Visual appearance ([1]; 15 mg/ml, Na, MilliQ (8)) | Avr lag time ([2]; 1 mg/ml, TFA, Phosphate (7.4)) | Avr lag time ([2]; 5 mg/ml, Na, MilliQ) | Avr lag time ([2]; 5 mg/ml, TFA, MilliQ (8)) | Avr lag time ([2]; 5 mg/ml, TFA, Phosphate) | Fibril formation (FIG. 1) ([2]; in phosphate buffer, about 94 h, orbital rotation) | Avr lag time (h) ([2]; 1 mg/ml, TFA, Phosphate (7.4)) | Avr lag time (h) ([2]; 7.5 mg/ml, Na, MilliQ (8)) | Avr lag time (h) ([2]; 15 mg/ml, Na, MilliQ (8))
CC[C@H](C)[C@H](NC(=O)[C@H](CO)NC(=O)[C@H](Cc1ccc(O)cc1)NC(=O)[C@H](CC(=O)O)NC(=O)[C@H](CO)NC(=O)[C@@H](NC(=O)[C@H](Cc1ccccc1)NC(=O)[C@@H](NC(=O)CNC(=O)[C@@H](N)CCC(=O)O)[C@@H](C)O)[C@@H](C)CC)C(=O)N[C@@H](C)C(=O)N[C@@H](CCSC)C(=O)N[C@@H](CC(=O)O)C(=O)N[C@@H](CCCCN)C(=O)N[C@H](C(=O)N[C@@H](CCCCNC(=O)CCCCCCCCCCCCCCC(=O)O)C(=O)N[C@@H](CCC(N)=O)C(=O)N[C@@H](CCC(N)=O)C(=O)N[C@@H](CC(=O)O)C(=O)N[C@@H](Cc1ccccc1)C(=O)N[C@H](C(=O)N[C@@H](CC(N)=O)C(=O)N[C@@H](Cc1c[nH]c2ccccc12)C(=O)N[C@@H](CC(C)C)C(=O)N[C@@H](CC(C)C)C(=O)N[C@@H](C)C(=O)N[C@@H](CCC(N)=O)C(=O)N[C@@H](CCCCN)C(=O)N1CCC[C@H]1C(=O)N[C@@H](CO)C(=O)N[C@@H](CO)C(=O)NCC(=O)N[C@@H](C)C(=O)N1CCC[C@H]1C(=O)N1CCC[C@H]1C(=O)N1CCC[C@H]1C(=O)N[C@@H](CO)C(=O)O)C(C)C)[C@@H](C)CC [AT364, GIP(3-30) [H18K] C16diacid+Cex(31-39), reference compound] (H-EGTFISDYSIAMDKIK(C16 diacid)QQDFVNWLLAQKPSSGAPPPS-OH; N-terminus assumed) | Clear | Clear | Clear | Clear | Clear | Clear | Clear | Clear | <18 h | 20 to 50 h | <18 h | <18 h | forms fibrils |  |  | 
CCCC[C@H](NC(=O)C(C)(C)NC(=O)[C@@H](NC(=O)[C@H](CO)NC(=O)[C@H](Cc1ccc(O)cc1)NC(=O)[C@H](CCC(=O)O)NC(=O)[C@H](CO)NC(=O)[C@@H](NC(=O)[C@H](Cc1ccccc1)NC(=O)[C@@H](NC(=O)CNC(=O)CCCC(=O)O)[C@@H](C)O)[C@@H](C)CC)[C@@H](C)CC)C(=O)N[C@@H](CCC(=O)O)C(=O)N[C@@H](CCCCN)C(=O)N[C@H](C(=O)N[C@@H](CCCCNC(=O)COCCOCCNC(=O)COCCOCCNC(=O)CC[C@H](NC(=O)CCCCCCCCCCCCCCCCC(=O)O)C(=O)O)C(=O)N[C@@H](CCC(N)=O)C(=O)N[C@@H](CCC(N)=O)C(=O)N[C@@H](CCC(=O)O)C(=O)N[C@@H](Cc1ccccc1)C(=O)N[C@H](C(=O)N[C@@H](CCC(=O)O)C(=O)N[C@@H](Cc1c[nH]c2ccccc12)C(=O)N[C@@H](CC(C)C)C(=O)N[C@@H](CC(C)C)C(=O)N[C@@H](C)C(=O)N[C@@H](CCC(N)=O)C(=O)N[C@@H](CCCCN)C(=O)N1CCC[C@H]1C(=O)N[C@@H](CO)C(=O)N[C@@H](CO)C(=O)NCC(=O)N[C@@H](C)C(=O)N1CCC[C@H]1C(=O)N1CCC[C@H]1C(=O)N1CCC[C@H]1C(=O)N[C@@H](CO)C(=O)O)C(C)C)[C@@H](C)CC [AT706] (Glutaryl-GTFISEYSI[Aib][Nle]EKIK([AEEA-AEEA-γGlu-C18 diacid])QQEFVEWLLAQKPSSGAPPPS-OH) |  |  | Clear |  |  |  | Clear | Clear |  |  |  |  |  | fnd (Fnd = fibrils not detected within experiment time (96 hours) with agitation.) | fnd (Fnd = fibrils not detected within experiment time (96 hours) with agitation.) | fnd (Fnd = fibrils not detected within experiment time (96 hours) with agitation.)
CC[C@H](C)[C@H](NC(=O)[C@H](CCCCN)NC(=O)[C@H](CC(=O)O)NC(=O)[C@H](CC(C)C)NC(=O)C(C)(C)NC(=O)[C@@H](NC(=O)[C@H](CO)NC(=O)[C@H](Cc1ccc(O)cc1)NC(=O)[C@H](CCC(=O)O)NC(=O)[C@H](CO)NC(=O)[C@@H](NC(=O)[C@H](Cc1ccccc1)NC(=O)[C@@H](NC(=O)CNC(=O)[C@@H](N)CCC(=O)O)[C@@H](C)O)[C@@H](C)CC)[C@@H](C)CC)C(=O)N[C@@H](CCCCNC(=O)COCCOCCNC(=O)COCCOCCNC(=O)CC[C@H](NC(=O)CCCCCCCCCCCCCCCCC(=O)O)C(=O)O)C(=O)N[C@@H](CCC(N)=O)C(=O)N[C@@H](CCC(N)=O)C(=O)N[C@@H](CC(=O)O)C(=O)N[C@@H](Cc1ccccc1)C(=O)N[C@H](C(=O)N[C@@H](CCC(=O)O)C(=O)N[C@@H](Cc1c[nH]c2ccccc12)C(=O)N[C@@H](CC(C)C)C(=O)N[C@@H](CC(C)C)C(=O)N[C@@H](C)C(=O)N[C@@H](CCC(N)=O)C(=O)N[C@@H](CCCCN)C(=O)N1CCC[C@H]1C(=O)N[C@@H](CO)C(=O)N[C@@H](CO)C(=O)NCC(=O)N[C@@H](C)C(=O)N1CCC[C@H]1C(=O)N1CCC[C@H]1C(=O)N1CCC[C@H]1C(=O)N[C@@H](CO)C(=O)O)C(C)C [AT712] (H-EGTFISEYSI[Aib]LDKIK([AEEA-AEEA-γGlu-C18 diacid])QQDFVEWLLAQKPSSGAPPPS-OH; N-terminus assumed) |  |  | Clear |  |  |  |  |  |  |  |  |  |  | fnd (Fnd = fibrils not detected within experiment time (96 hours) with agitation.) |  | 
CC[C@H](C)[C@H](NC(=O)[C@H](CCCCN)NC(=O)[C@H](CCC(=O)O)NC(=O)[C@H](CC(C)C)NC(=O)C(C)(C)NC(=O)[C@@H](NC(=O)[C@H](CO)NC(=O)[C@H](Cc1ccc(O)cc1)NC(=O)[C@H](CCC(=O)O)NC(=O)[C@H](CO)NC(=O)[C@@H](NC(=O)[C@H](Cc1ccccc1)NC(=O)[C@@H](NC(=O)CNC(=O)[C@@H](N)CCC(=O)O)[C@@H](C)O)[C@@H](C)CC)[C@@H](C)CC)C(=O)N[C@@H](CCCCNC(=O)COCCOCCNC(=O)COCCOCCNC(=O)CC[C@H](NC(=O)CCCCCCCCCCCCCCCCC(=O)O)C(=O)O)C(=O)N[C@@H](CCC(N)=O)C(=O)N[C@@H](CCC(N)=O)C(=O)N[C@@H](CCC(=O)O)C(=O)N[C@@H](Cc1ccccc1)C(=O)N[C@H](C(=O)N[C@@H](CCC(=O)O)C(=O)N[C@@H](Cc1c[nH]c2ccccc12)C(=O)N[C@@H](CC(C)C)C(=O)N[C@@H](CC(C)C)C(=O)N[C@@H](C)C(=O)N[C@@H](CCC(N)=O)C(=O)N[C@@H](CCCCN)C(=O)N1CCC[C@H]1C(=O)N[C@@H](CO)C(=O)N[C@@H](CO)C(=O)NCC(=O)N[C@@H](C)C(=O)N1CCC[C@H]1C(=O)N1CCC[C@H]1C(=O)N1CCC[C@H]1C(=O)N[C@@H](CO)C(N)=O)C(C)C [AT714] (H-EGTFISEYSI[Aib]LEKIK([AEEA-AEEA-γGlu-C18 diacid])QQEFVEWLLAQKPSSGAPPPS-NH2; N-terminus assumed) |  |  | Clear |  |  |  |  |  |  |  |  |  |  | fnd (Fnd = fibrils not detected within experiment time (96 hours) with agitation.) |  | 
